According to ChEMBL document CHEMBL4251560, “The Novel 4-Phenyl-2-Phenoxyacetamide Thiazoles modulates the tumor hypoxia leading to the crackdown of neoangiogenesis and evoking the cell death” (Eur J Med Chem, 2018):

Experiments:
Assay type in all cases: functional, cell-based
[1] = system: MCF7; experiment: Cytotoxicity against human MCF7 cells assessed as reduction in cell viability after 48 hrs by MTT assay; conditions: MCF7, 48 h
[2] = system: Ehrlich; experiment: Cytotoxicity against mouse EAC cells assessed as reduction in cell viability after 48 hrs by trypan blue exclusion assay
[3] = system: A549; experiment: Cytotoxicity against human A549 cells assessed as reduction in cell viability after 48 hrs by MTT assay; conditions: A549, 48 h
[4] = system: MCF7; experiment: Cytotoxicity against human MCF7 cells assessed as reduction in cell viability after 48 hrs by trypan blue exclusion assay; conditions: MCF7, 48 h
[5] = system: MDA-MB-468; experiment: Cytotoxicity against human MDA-MB-468 cells assessed as reduction in cell viability after 48 hrs by trypan blue exclusion assay; conditions: MDA-MB-468, 48 h
[6] = Cytotoxicity against mouse DLA cells assessed as reduction in cell viability after 48 hrs by MTT assay
[7] = system: Ehrlich; experiment: Cytotoxicity against mouse EAC cells assessed as reduction in cell viability after 48 hrs by MTT assay
[8] = system: MDA-MB-468; experiment: Cytotoxicity against human MDA-MB-468 cells assessed as reduction in cell viability after 48 hrs by MTT assay; conditions: MDA-MB-468, 48 h
[9] = system: A549; experiment: Cytotoxicity against human A549 cells assessed as reduction in cell viability after 48 hrs by trypan blue exclusion assay; conditions: A549, 48 h
[10] = Cytotoxicity against mouse DLA cells assessed as reduction in cell viability after 48 hrs by trypan blue exclusion assay

SMILES | IC50 [1] [µM] | IC50 [2] [µM] | IC50 [3] [µM] | IC50 [4] [µM] | IC50 [5] [µM] | IC50 [6] [µM] | IC50 [7] [µM] | IC50 [8] [µM] | IC50 [9] [µM] | IC50 [10] [µM]
CC(C)c1ccccc1OCC(=O)Nc1nc(-c2ccc(Br)cc2)cs1 | 42.5 | 50.1 | 48.2 | 43.5 | 50.1 | 45.7 | 50.9 | 50.9 | 48.5 | 45.1
O=C(COc1ccccc1)Nc1nc(-c2ccc(Cl)cc2)cs1 | 60.3 | 56.8 | 42.9 | 55.9 | 44.2 | 53.5 | 55.5 | 55.3 | 42.8 | 53.2
O=C(COc1ccc(F)cc1)Nc1nc(-c2ccc(Br)cc2)cs1 | 55.5 | 45.3 | 52.1 | 56.8 | 51.7 | 42.5 | 45.5 | 52.1 | 51.7 | 43.5
Cc1cc(Cl)ccc1OCC(=O)Nc1nc(-c2ccc(Cl)cc2)cs1 | 40.6 | 52.1 | 43.4 | 40.1 | 52.1 | 40.1 | 52.4 | 52.4 | 43.1 | 40.6
O=C(COc1ccc(Cl)cc1)Nc1nc(-c2ccc(Cl)cc2)cs1 | 44.5 | 52.1 | 49.9 | 44.1 | 56.8 | 53.2 | 51.9 | 55.5 | 49.1 | 52.1
Cc1ccc(OCC(=O)Nc2nc(-c3ccc(Br)cc3)cs2)cc1 | 52.2 | 55.3 | 58.8 | 52.4 | 44.5 | 42.5 | 55.8 | 44.9 | 58.6 | 43.5
O=C(COc1ccc(F)cc1F)Nc1nc(-c2ccc(Br)cc2)cs1 | 52.9 | 44.7 | 58.8 | 52.1 | 44.7 | 55.8 | 44.2 | 44.2 | 59.1 | 55.3
Cc1ccccc1OCC(=O)Nc1nc(-c2ccc(Cl)cc2)cs1 | 62.2 | 63.1 | 64.9 | 62.8 | 52.1 | 49.2 | 62.3 | 40.1 | 64.8 | 49
Cc1ccc(-c2csc(NC(=O)COc3ccc(Cl)c(C)c3)n2)cc1 | 40.9 | 59.1 | 44.9 | 41.5 | 54.7 | 60.3 | 58.8 | 54.2 | 44.5 | 59.1
O=C(COc1ccc(Br)cc1)Nc1nc(-c2ccc(Br)cc2)cs1 | 44.9 | 41.1 | 46.5 | 44.5 | 41.1 | 52.4 | 41.7 | 41.7 | 46.6 | 52.1
O=C(COc1ccccc1)Nc1nc(-c2ccc(Br)cc2)cs1 | 54.3 | 37.1 | 52.9 | 54 | 37.1 | 60.3 | 37.2 | 37.2 | 52.2 | 55.9
Cc1cc(OCC(=O)Nc2nc(-c3ccc(Br)cc3)cs2)ccc1Cl | 52.1 | 47.1 | 52.1 | 51.7 | 51.7 | 40.1 | 47.8 | 52.1 | 51.7 | 39.7
Cc1ccc(OCC(=O)Nc2nc(-c3ccc(C)cc3)cs2)cc1 | 41.3 | 45.1 | 48.3 | 41.4 | 37.1 | 40.1 | 45.7 | 37.2 | 48.8 | 39.7
O=C(COc1ccc(F)cc1)Nc1nc(-c2ccc(Cl)cc2)cs1 | 35.5 | 35.9 | 36.5 | 35.3 | 42.9 | 35.9 | 35.3 | 42.1 | 36.3 | 35.1
CC(C)c1ccccc1OCC(=O)Nc1nc(-c2ccc(Cl)cc2)cs1 | 18.7 | 49.8 | 17.8 | 18.1 | 55.5 | 40.6 | 50.1 | 53.2 | 17.1 | 40.1
CC(C)c1ccc(OCC(=O)Nc2nc(-c3ccc(Cl)cc3)cs2)c(C(C)C)c1 | 40.1 | 62.8 | 48.8 | 40.6 | 41.1 | 54.3 | 62.2 | 41.7 | 48.6 | 54
O=C(COc1ccc(Br)cc1)Nc1nc(-c2ccc(Cl)cc2)cs1 | 52.4 | 51.7 | 54.4 | 52.1 | 50.9 | 40.6 | 52.1 | 45.1 | 54.9 | 40.1
O=c1[nH]cc(F)c(=O)[nH]1 [FLUOROURACIL] | 10.2 | 9.6 | – | 10.6 | 44.6 | 10.8 | 9.2 | 44.9 | – | 10.6
Cc1ccc(OCC(=O)Nc2nc(-c3ccc(Cl)cc3)cs2)cc1 | 48.7 | 40.1 | 45.7 | 48.8 | 50.1 | 52.9 | 40.6 | 50.9 | 44.8 | 52.1
Cc1ccc(-c2csc(NC(=O)COc3ccccc3C(C)C)n2)cc1 | 49.2 | 42.8 | 44.2 | 49 | 56.8 | 52.9 | 42.9 | 55.5 | 44.7 | 52.2
O=C(COc1ccc(F)cc1F)Nc1nc(-c2ccc(Cl)cc2)cs1 | 25.8 | 26.5 | 26.5 | 25.3 | 32.3 | 26.1 | 26.2 | 32.9 | 26.3 | 26.4
Cc1ccc(-c2csc(NC(=O)COc3ccc(Cl)cc3)n2)cc1 | 43.8 | 42 | 44 | 43.7 | 44.7 | 52.4 | 42.5 | 44.2 | 44.7 | 52.1
Cc1ccc(-c2csc(NC(=O)COc3ccc(F)cc3)n2)cc1 | 18.3 | 18.1 | 19.3 | 18.1 | 24.4 | 18.9 | 18.4 | 24.9 | 19.1 | 18.1
O=C(COc1ccc(Cl)cc1)Nc1nc(-c2ccc(Br)cc2)cs1 | 41.1 | 40.6 | 46.1 | 41.4 | 51.7 | 60.3 | 40.1 | 52.1 | 46.4 | 55.9
Cc1ccc(-c2csc(NC(=O)COc3ccccc3)n2)cc1 | 43 | 49.8 | 41.7 | 43 | 54.5 | 52.1 | 50.1 | 54.9 | 41.1 | 51.7
Cc1ccc(-c2csc(NC(=O)COc3ccc(Br)cc3)n2)cc1 | 39.1 | 48.5 | 37.2 | 39 | 40.1 | 52.1 | 48.2 | 40.9 | 37.1 | 51.7
Cc1ccccc1OCC(=O)Nc1nc(-c2ccc(Br)cc2)cs1 | 40.1 | 44.5 | 50.1 | 39.7 | 44.5 | 62.2 | 44.9 | 44.9 | 49.8 | 62.8
Cc1ccc(-c2csc(NC(=O)COc3ccccc3C)n2)cc1 | 53.5 | 54.9 | 50.9 | 53.2 | 51.7 | 46.5 | 54.4 | 52.1 | 50.1 | 46.6
